Test results from US9770026B2, “Substituted pyrimidine compound and uses thereof” (Shenyang Sinochem Agrochemicals R&D Co., Ltd., priority 2012, dated 2017).

How the values were obtained:
armyworm = experiment: bioactivity test against armyworm, airbrush spray; type: in vivo; details: for control (test results against armyworm): 600 ppm
wheat powdery mildew = experiment: protectant activity in vivo against wheat powdery mildew
[1] = test system: Green peach aphids (Myzus Persicae Sulzer); experiment: bioactivity test against green peach aphid, airbrush foliar spray; type: in vivo; details: for Insecticidal activity against peach aphid (%): contrastive test
How it was run: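 Death rate was scored at 48 hrs, held at 25±1 C and 60±5% RH, following airbrush foliar spray (0.5 mL, 10 psi) onto cabbage leaf discs bearing about 15-30 aphids. Test solutions: compound dissolved in 1:1 acetone:methanol, brought to concentration with 0.1% tween 80 water.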

carmine spider mite = experiment: bioactivity test against carmine spider mite, airbrush spray; type: in vivo
How it was run: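 Broadbean seedlings infested with adult mites were sprayed with compound (acetone/methanol stock diluted in 0.1% Tween 80 water) by airbrush at 0.7 kg/cm^2, 0.5 ml. Three replicates were run. Mortality was scored after 72 hrs.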

corn rust = experiment: protectant activity in vivo against corn rust
Diamond back moth = experiment: insecticidal activity against diamond back moth, airbrush spray; type: in vivo
How it was run: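 Airbrush leaf-disc spray test: both faces of 2 cm cabbage discs received 0.5 ml of test solution at 0.7 kg/cm^2. Solutions were made in acetone:methanol (1:1) and brought to concentration with 0.1% Tween 80 in water. Ten second-instar larvae per disc, triplicates, were held at 25° C and 60˜70% R.H., with mortality recorded at 72 hrs.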

[2] = 10 ppm, death rate after 48 hrs
[3] = 100 ppm, death rate after 48 hrs
[4] = 600 ppm, death rate after 48 hrs
[5] = 100 ppm, mortality after 72 hrs
[6] = 600 ppm, mortality after 72 hrs

With `Cc1ncnc(NCCc2ccc(Oc3ccc(Cl)cc3)cc2)c1Cl` [II-19] the “control (test results against armyworm)” value (armyworm; mortality after 72 h) was 100%, the “protectant activity against wheat powdery mildew in vivo” value (wheat powdery mildew; 400 ppm) was 100% and the “Insecticidal activity against peach aphid (%)” value ([1]; 10 mg/L) was 100%. The “Insecticidal activity against peach aphid (%)” value ([1]; 100 mg/L) was 100%, the “Insecticidal activity against peach aphid (%)” value ([1]; 600 mg/L) was 100% and the “control (test results against green peach aphid)” value [1, 2] was 100%. The “control (test results against green peach aphid)” value [1, 3] was 100%, the “control (test results against green peach aphid)” value [1, 4] was 100% and the “control against carmine spider mite” value (carmine spider mite; [5]) was 100%. The “control against carmine spider mite” value (carmine spider mite; [6]) was 100%, the “protectant activity against corn rust in vivo” value (corn rust; 400 ppm) was 100% and the “Insecticidal activity against diamond back moth (%)” value (Diamond back moth; 10 mg/L) was 50%. The “Insecticidal activity against diamond back moth (%)” value (Diamond back moth; 100 mg/L) was 100%, the “Insecticidal activity against diamond back moth (%)” value (Diamond back moth; 600 mg/L) was 100% and the “control (test results against diamond back moth)” value (Diamond back moth; [5]) was 100%. The “control (test results against diamond back moth)” value (Diamond back moth; [6]) was 100%.
With `CCc1ncnc(NCCc2ccc(Oc3ccc(C(F)(F)F)cc3)cc2)c1Cl.Cl` [II-19334] the “control (test results against armyworm)” value (armyworm; mortality after 72 h) was 100%, the pest or weed control at 10 µg/mL (armyworm; 72 h, 10 mg/L, read-out: Insecticidal activity against armyworm (%)) was 44% and the pest or weed control at 100 µg/mL (armyworm; 72 h, 100 mg/L, read-out: Insecticidal activity against armyworm (%)) was 84%. The pest or weed control at 600 µg/mL (armyworm; 72 h, 600 mg/L, read-out: Insecticidal activity against armyworm (%)) was 100%, the pest or weed control at 100 ppm (armyworm; 72 h, 100 ppm, mortality after 72 h) was 80 to 99% and the “protectant activity against wheat powdery mildew in vivo” value (wheat powdery mildew; 25 ppm) was 100%. For the same molecule, the “protectant activity against wheat powdery mildew in vivo” value (wheat powdery mildew; 100 ppm) was 100%, the “protectant activity against wheat powdery mildew in vivo” value (wheat powdery mildew; 400 ppm) was 100% and the pest or weed control at 1.6 µg/mL (wheat powdery mildew; Triticum aestivum, 168 h, read-out: control effect against wheat powdery mildew (%), 1.6 mg/L, protectant activity) was 60%. It also gave a pest or weed control at 6.25 µg/mL (wheat powdery mildew; Triticum aestivum, 168 h, read-out: control effect against wheat powdery mildew (%), 6.25 mg/L, protectant activity) of 100%, a pest or weed control at 25 µg/mL (wheat powdery mildew; Triticum aestivum, 168 h, read-out: control effect against wheat powdery mildew (%), 25 mg/L, protectant activity) of 100% and a pest or weed control at 100 µg/mL (wheat powdery mildew; Triticum aestivum, 168 h, read-out: control effect against wheat powdery mildew (%), 100 mg/L, protectant activity) of 100%. The pest or weed control at 400 µg/mL (wheat powdery mildew; Triticum aestivum, 168 h, read-out: control effect against wheat powdery mildew (%), 400 mg/L, protectant activity) was 100%, the pest or weed control at 6.25 ppm (wheat powdery mildew; Triticum aestivum, 168 h, read-out: protectant activity against wheat powdery mildew in vivo, 6.25 ppm) was 100% and the “Insecticidal activity against peach aphid (%)” value ([1]; 1.25 mg/L) was 67%. The “Insecticidal activity against peach aphid (%)” value ([1]; 2.5 mg/L) was 83%, the “Insecticidal activity against peach aphid (%)” value ([1]; 5 mg/L) was 96% and the “Insecticidal activity against peach aphid (%)” value ([1]; 10 mg/L) was 100%. The “Insecticidal activity against peach aphid (%)” value ([1]; 100 mg/L) was 100%, the “Insecticidal activity against peach aphid (%)” value ([1]; 600 mg/L) was 100% and the “control (test results against green peach aphid)” value [1, 2] was 100%. For the same molecule, the “control (test results against green peach aphid)” value [1, 3] was 100%, the “control (test results against green peach aphid)” value [1, 4] was 100% and the pest or weed control at 2.5 ppm ([1]; Myzus persicae, foliar, 48 h, 2.5 ppm, death rate after 48 hrs) was 80 to 99%. For the same molecule, the “Insecticidal activity against carmine spider mite (% )” value (shortened to “Insecticidal activity … (% )”) (carmine spider mite; 2.5 mg/L) was 87%, the “Insecticidal activity … (% )” value (carmine spider mite; 5 mg/L) was 100% and the “Insecticidal activity … (% )” value (carmine spider mite; 10 mg/L, contrastive test) was 100%. For the same molecule, the “Insecticidal activity … (% )” value (carmine spider mite; 100 mg/L, contrastive test) was 100%, the “Insecticidal activity … (% )” value (carmine spider mite; 600 mg/L, contrastive test) was 100% and the “control against carmine spider mite” value (carmine spider mite; 10 ppm, mortality after 72 hrs) was 100%. The “control against carmine spider mite” value (carmine spider mite; [5]) was 100%, the “control against carmine spider mite” value (carmine spider mite; [6]) was 100% and the pest or weed control at 2.5 ppm (carmine spider mite; Tetranychus cinnabarinus, 72 h, 2.5 ppm, mortality after 72 hrs) was 80 to 99%. The pest or weed control at 5 ppm (carmine spider mite; Tetranychus cinnabarinus, 72 h, 5 ppm, mortality after 72 hrs) was 100%, the “protectant activity against corn rust in vivo” value (corn rust; 400 ppm) was 100% and the “control (test results against diamond back moth)” value (Diamond back moth; [6]) was 100%. The pest or weed control at 100 ppm (Diamond back moth; 72 h, 100 ppm, mortality after 72 hrs, read-out: control (test results against diamond back moth)) was 100%.
`Cc1ncnc(NCCc2ccc(Oc3cccc(C(F)(F)F)c3)nc2)c1Cl` [III-21] was tested, and the “control (test results against armyworm)” value (armyworm; mortality after 72 h) was 100%, the “protectant activity against wheat powdery mildew in vivo” value (wheat powdery mildew; 400 ppm) was 100% and the “control (test results against green peach aphid)” value [1, 4] was 100%. For the same molecule, the “control against carmine spider mite” value (carmine spider mite; [6]) was 100%, the “protectant activity against corn rust in vivo” value (corn rust; 100 ppm) was 100% and the “protectant activity against corn rust in vivo” value (corn rust; 400 ppm) was 100%. For the same molecule, the “control (test results against diamond back moth)” value (Diamond back moth; [6]) was 100%.
